# Test results published in publication PMC10787068, “Targeting the Mitochondrial Chaperone TRAP1 Alleviates Vascular Pathologies in Ischemic Retinopathy” (Advanced Science, 2023).
# “Also recorded” adds a separate entry of the source. Non-standard residues stand in square brackets, D forms with d. Residues, ends and D or L forms follow the SMILES beside them. *: point of attachment. Nle = CCCC[C@H](N)C(=O)O; Cbz = O=C(OCc1ccccc1)*
# What was measured:
# Format in all cases: cell-based, human
# MIO‐M1 cells = assay: Cytoplasmic calcium (Fluo‐4 AM) in MIO‐M1 cells; conditions: Fluo‐4 AM‐labeled MIO‐M1 cells under hypoxia; MitoQ 6 h, thapsigargin 30 min
# Method: (§1) Figure 5 TRAP1 inhibition induces mPTP opening, mitochondrial calcium discharge, and calpain‐1 activation. A) Visualization of cytoplasmic calcium. Fluo‐4 AM‐labeled MIO‐M1 cells were incubated with the TRAP1 inhibitors gamitrinib and MitoQ^[ [32], [41] ^] for 6 h or thapsigargin for 30 min under hypoxia, and analyzed by confocal microscopy. Scale bars, 10 µm and 2 µm (inset). […] MIO‐M1 cells were treated with a TRAP1 inhibitor, 3 µM gamitrinib or 0.5 µM MitoQ, for 6 h under hypoxia (n = 4). Enzyme activity was measured using a fluorogenic calpain substrate as described in the Experimental Section. C) Restored HIF1α expression upon CypD inhibition. MIO‐M1 cells were incubated with control or CypD‐targeting siRNAs, treated with the TRAP1 inhibitor MitoQ for 6 h under hypoxia, harvested, and analyzed by western blotting. Black and red arrows indicate pro and autolyzed forms of calpain‐1, respectively. […] MIO‐M1 cells were incubated with TRAP1‐targeting siRNAs for 48 h, exposed to hypoxia for 6 h, harvested, and analyzed by qPCR (n = 4). […] Cells were then analyzed by flow cytometry to detect cytoplasmic calcium. […] MIO‐M1 cells were incubated with TRAP1 inhibitors, 3 µM gamitrinib, and 0.5 µM MitoQ, and a cell‐permeable calcium chelator, BAPTA (10 µM), for 6 h as indicated under hypoxia and analyzed by western blotting. […] Data information: Data are expressed as mean ± SEM. […]
# HIF1α = HIF1α degradation in MIO‐M1 cells under hypoxia (western blotting); conditions: western blotting; for effect of co-treatment on HIF1α degradation triggered by TRAP1 inhibition: MIO‐M1 cells with gamitrinib or MitoQ, 6 h, hypoxia, BAPTA 10 µM, ALLN 10 µM
# calpain = assay: Calpain activity assay in MIO‐M1 cells; conditions: 3 µM gamitrinib or 0.5 µM MitoQ, 6 h under hypoxia, fluorogenic calpain substrate, n = 4
# Method: as §1
# Trap1 KO MIO-M1 cells = assay: TRAP1 inhibitor effects in Trap1 KO MIO‐M1 cells
# Method: MIO‐M1 Trap1 KO cell lines were generated using CRISPR/Cas9‐derived RNA‐guided endonucleases (Toolgen; Seoul, Republic of Korea). MIO‐M1 cells were co‐transfected with the Cas9 vector and TRAP1‐sgRNA expression vector (sgRNA sequence 1; 5′‐[…]‐3′ and sequence 2; 5′‐[…]‐3′) using jetPRIME transfection reagent (Polyplus; Illkirch‐Graffenstaden, France). Transfected cells were selected in culture medium containing […] puromycin (Sigma). Single‐cell colonies were collected using a cloning cylinder (I.D. × H 6.4 mm × 8 mm; Sigma) and analyzed using T7 endonuclease I to confirm Trap1 KO.
# Supplementary Figure 16. Calpain-1 autolysis and HIF1α degradation in Trap1 […]
# A) HIF1α degradation and calpain-1 autolysis in Trap1 knockout (KO) MIO-M1 cells. Trap1 KO MIO-M1 cells were generated as described in the Experimental Section and incubated in hypoxia for 6 hr, followed by analysis using western blotting. Under hypoxia, HIF1α degradation and autoproteolysis of calpain-1 were found in Trap1 KO MIO-M1 cells, when compared with wild type (WT) cells. […]
# cell lines were established using MIO-M1 cells. WT and KO cells were incubated with MitoQ for 6 hr under hypoxia and analyzed by western blotting. Trap1 KO reduced the expression of […]
# Quantification of the HIF1α protein level. HIF1α western blot density was analyzed and compared. Data are expressed as mean ± SEM from four independent experiments.
# C) Cytoplasmic calcium concentration. WT and Trap1-KO MIO-M1 cells were labeled with […]
# Fluo-4 AM, incubated with 3 μM gamitrinib or 1 μM MitoQ for 6 hr under hypoxia, collected, and analyzed by flow cytometry. Data information: Data are expressed as mean ± SEM.
# Student t-test, ***P < 0.001; ns, not significant. […]
# calpain‐1 = assay: Calpain‐1 activation (autolysis, western blotting) in MIO‐M1 cells; conditions: MIO‐M1 cells with 3 µM gamitrinib or 0.5 µM MitoQ, 6 h, hypoxia; BAPTA 10 µM, ALLN 10 µM
# Method: as §1
# cytoplasmic Hsp90 = assay: Cytoplasmic Hsp90 inhibition in MIO-M1 cells (western blotting); conditions: 6 hr
# Method: Cells and tissue samples were lysed using RIPA buffer (50 mM Tris, pH 8.0, 150 mM NaCl, 1% NP‐40, and 0.25% N‐deoxycholate) containing protease and phosphatase inhibitor cocktails (Roche). Lysates were separated by SDS‐PAGE and transferred to PVDF membranes. The membranes were blocked with 10% skim milk prepared in TBST (TBS (50 mM Tris and 150 mM NaCl, pH 7.6) containing 0.05% Tween‐20) for 1 h at RT and incubated with primary antibodies in antibody diluent solution (TBS containing 3 mM sodium azide and 0.1% BSA) overnight at 4 °C. After washing with TBST, the membranes were incubated with secondary antibodies for 1 h in 10% skim milk prepared in TBST. Finally, the membranes were washed three times with TBST, treated with ECL solution (Bio‐Rad; Hercules, CA, USA), and analyzed using a LAS4000 system (GE Healthcare; Chicago, IL, USA).
# inhibitor) and gamitrinib as indicated for 6 hr, harvested, and analyzed by western blotting.
# C) Cytoplasmic Hsp90 inhibition. MIO-M1
# cells were incubated with DMAG (an Hsp90 inhibitor) as indicated for 6 hr under normoxia
# or hypoxia and analyzed by western blotting.
molecule,measurement,setting,value
C/C=C(/C)C(=O)O[C@H]1C(C)=C2[C@H]([C@@H]1OC(=O)CCCCCCC)[C@@](C)(OC(C)=O)C[C@H](OC(=O)CCC)[C@@]1(O)[C@H]2OC(=O)[C@@]1(C)O [thapsigargin],cytoplasmic calcium,MIO‐M1 cells,substantial calcium release
"COC(=O)CNC(=O)C(=O)OC [DMOG, dimethyloxalylglycine]",effect of co-treatment on HIF1α degradation triggered by TRAP1 inhibition,HIF1α,did not affect; also recorded: unaffected
CC(=O)N[C@@H](CSC(=O)[C@]1([C@@H](O)C(C)C)NC(=O)[C@H](C)[C@@H]1O)C(=O)O [lactacystin],effect of co-treatment on HIF1α degradation triggered by TRAP1 inhibition,HIF1α,not effectively restored; also recorded: did not
gamitrinib,calpain enzyme activity,calpain,Calpain activation
same,cytosolic calcium concentration in Trap1−/− cells,"Trap1 KO MIO-M1 cells; 3 μM gamitrinib or 1 μM MitoQ, 6 hr under hypoxia, Fluo-4 AM flow cytometry",did not affect
same,HIF1α expression in Trap1−/− cells,"Trap1 KO MIO-M1 cells; 6 hr under hypoxia, western blotting",did not affect
same,calpain‐1 activation in Trap1−/− cells,Trap1 KO MIO-M1 cells; hypoxia,did not affect
O=C(O)CCC(=O)O [succinate],effect of co-treatment on HIF1α degradation triggered by TRAP1 inhibition,HIF1α,did not affect; also recorded: unaffected
CC(C)C[C@@H](C=O)NC(=O)[C@H](CC(C)C)NC(=O)[C@H](CC(C)C)NC(=O)OCc1ccccc1 [MG132] (Cbz-Leu-Leu-Leu-aldehyde),effect of co-treatment on HIF1α degradation triggered by TRAP1 inhibition,HIF1α,completely restored; also recorded: completely blocked
CCCC[C@@H](C=O)NC(=O)[C@H](CC(C)C)NC(=O)[C@H](CC(C)C)NC(C)=O [ALLN] (Ac-Leu-Leu-[Nle]-aldehyde),effect of co-treatment on HIF1α degradation triggered by TRAP1 inhibition,HIF1α,fully reversed
same,effect of co-treatment on calpain‐1 activation triggered by TRAP1 inhibition,calpain‐1,fully reversed
"CO[C@H]1/C=C\C=C(/C)C(=O)NC2=CC(=O)C(NCCN(C)C)=C(C[C@@H](C)C[C@H](OC)[C@H](O)[C@@H](C)/C=C(\C)[C@@H]1OC(N)=O)C2=O [DMAG, 17‐Dimethyl‐aminothylamino‐17‐demethoxy‐geldanamycin]",stability of HIF1α,"HIF1α; MIO-M1 cells, 6 hr under normoxia or hypoxia",did not affect
same,stress response protein Hsp70 level,cytoplasmic Hsp90,upregulated
"O=C(O)CN(CC(=O)O)c1ccccc1OCCOc1ccccc1N(CC(=O)O)CC(=O)O [BAPTA, 1,2‐bis (o‐aminophenoxy) ethane‐N, N, N', N'‐tetraacetic acid]",effect of co-treatment on HIF1α degradation triggered by TRAP1 inhibition,HIF1α,fully reversed
same,effect of co-treatment on calpain‐1 activation triggered by TRAP1 inhibition,calpain‐1,fully reversed
